A melting point compilation (Tetko et al.; mined from patent text by program, amines drawn as free bases though some values may be those of a salt)

melting point [°C] | SMILES
275 to 277 | N#Cc1c(O)nc2ccc(Cl)cc2c1O
85 to 87 | CCN1c2cscc2CNc2ccccc21
213 to 214 | O=C(c1cc2ccccc2[nH]1)N1CCCCC1
347 to 348 | O=c1[nH]c2cc(Cl)c(Cl)c([N+](=O)[O-])c2[nH]c1=O
230 | O=C1CCC2(Cc3ccc(Br)cc3)C(=O)N(c3cc(Cl)cc(Cl)c3)C(=O)N12 (configuration not stated)
180 to 181 | NC(=O)c1c(F)ccc(OCc2nc3ncccc3o2)c1F
> 290 | O=C(O)c1cnc2cc3c(cc2c1O)OCO3
145 to 146 | CCn1c2ccccc2c2cc(C=C(c3ccccc3)c3ccccc3)ccc21
92.1 to 92.7 | CCOC(=O)Cc1c(C)[nH]c2cc(F)c(OC)c(F)c12
140 to 144 | CCCOc1ccc(S(=O)(=O)NCCc2c[nH]cn2)cc1-c1nc2cc(Cl)c([N+](=O)[O-])cc2c(=O)[nH]1
234 to 237 | CCOC(=O)c1c[nH]c2c(OC)ccc(-c3ccccc3)c2c1=O
98 to 101 | CC(C)c1ccccc1N1C(=O)CON(C)C1=S
118 to 120 | O=C(NCCCc1ccc(CO)cc1)c1ccc(-c2ccccn2)cc1
198 to 200 | NC(=O)c1ccc(F)nc1N
146 to 150 | CCOc1cc(N(CC)CC)ccc1C1(c2ccc(N(C)C)cc2N(C)C)OC(=O)c2ccccc21 (configuration not stated)
205 to 207 | O=[N+]([O-])c1cccc2nc3c(nc12)OCC1CCCCN31 (configuration not stated)
71 | S=C(NCc1ccccc1)C1(c2ccccn2)CCCS1 (configuration not stated)
176 to 177 | CCOC(=O)c1c(Cn2cncn2)nc2cc(OC)c(OC)cc2c1-c1ccc(OC)c(OC)c1
69 to 71 | O=C(NCCO[N+](=O)[O-])C1COc2ccccc2O1 (configuration not stated)
134 to 136 | NS(=O)(=O)OCCOc1ccc(-n2cncn2)cc1
112 | CC1(C2CCCC2)Cc2cc(OCCCC#N)c(Cl)c(Cl)c2C1=O (configuration not stated)
167 to 168 | [N-]=[N+]=Nc1cc(Oc2ccc3c(c2)CCN3C(=O)Nc2cccc(C(F)(F)F)c2)ncn1
55 to 61 | CCCCC(C#N)(Cn1ccnc1)c1ccc(S(=O)c2ccccc2)cc1 (configuration not stated)
25.8 to 27 | O=c1oc2ccccc2s1

melting point [°C] | SMILES
175 | O=C(O)CCNC(=S)Nc1ccc2cn[nH]c2c1
197 to 198 | COc1cc(C=C2C(=O)NC(=O)N2C)ccc1O
159 to 161 | O=C(O)c1cc2cc(C3CCCCC3)ccc2nn1
248 to 250 | CC(C)(C)[Si](C)(C)OC1CCCc2cnc3cc(O)ccc3c21 (configuration not stated)
163 to 166 | CCOc1cc(C2=NNC(=O)[C@H]3CC=CC[C@@H]23)ccc1OC (relative stereo)
50 | CC(C)=CCC/C(C)=C/COCC(=O)c1cc(C(C)(C)C)c(O)c(C(C)(C)C)c1
84 | COC(=O)C(=O)NCCc1ccc(OCc2ccccc2)c(OCc2ccccc2)c1
199 | COC(=O)c1cn(-c2cc(C(=O)Nc3cc(C(C)(C)C)cc(NS(C)(=O)=O)c3OC)cc(C)c2C)nn1
205 to 206 | CC(C)(C)NC(=NC#N)Nc1cccnc1
119 to 122 | COc1cccc(CCc2ccccc2C(=O)O)c1
95 | O=C(O)CC1COc2ccccc2O1 (configuration not stated)
> 250 | CC1(C)CC(N(CCCCCCN(CCC(=O)O)C2CC(C)(C)NC(C)(C)C2)CCC(=O)O)CC(C)(C)N1
117 to 118 | COc1cccc2c1CCC2C(=O)O (configuration not stated)
> 210 | CC(C)(C)C(=O)Nc1nc(Cl)c2ccnc-2[nH]1
266 to 269 | C=C1SC(=S)N(c2ccc3cc(-c4ccc(OC)c(-c5ccccc5)c4)ccc3c2)C1=O
> 300 | O=C1c2ccccc2C(=O)c2c1nc1ccc(Cl)cn21
176 to 178 | COc1cccc(-c2nn(C(C)c3oc4ccccc4c(=O)c3-c3ccccc3)c3ncnc(N)c23)c1 (configuration not stated)
133 to 134 | O=C(O)CCC(=NOCc1ccc(OCc2ccc3ccccc3n2)cc1)c1ccccc1
124 | CC1(C)CCC(C)(C)c2cc3c(cc21)OCC3(C)c1cc(C=C(Br)Br)cs1 (configuration not stated)
228 to 230 | N#CC1=C(C#N)Sc2nc3cc([N+](=O)[O-])c(Cl)cc3nc2S1
167 | COc1ccc2ccc(N3C(=O)c4ccccc4C3OCC(=O)N3CCC(O)CC3)nc2n1 (configuration not stated)
230 to 232 | Cc1nc(Nc2ccc(Cl)cc2)sc1-c1nc2ccccc2c(=O)n1-c1ccccc1
128 to 132 | Nc1cccc(SC2SCC(O)C(O)C2O)c1 (configuration not stated)
87 to 101 | CCCCNS(=O)(=O)CC(O)C(O)C(CC1CCCCC1)NC(=O)[C@H](CC(C)C)NC(=O)C(Cc1ccccc1)CS(=O)(=O)C(C)(C)C (some centres not stated)

melting point [°C] | SMILES
97 to 100 | COC(=O)COc1c(C(=O)OC)n(-c2ccccc2)c2ccc(OC)cc12
189 | O=C(CC1CC1)N[C@H]1CC[C@H](CCN2CCC(c3cccc4c3CCO4)CC2)CC1
213 to 216 | COc1cc2c(cc1OC)C(NCC(=O)O)CC2 (configuration not stated)
> 350 | COc1cccc2c(O)c(CO)cnc12
106 to 109 | Cn1c(=O)c2c(ncn2CCCCC(=O)CBr)n(C)c1=O
245 to 246 | CCOC(=O)c1cn(-c2ccc(F)c(OC)c2)c2c(Cl)c(F)c(F)cc2c1=O
97 to 99 | CN(C[C@H]1CC[C@H](C#CCO)CC1)C(=O)OC(C)(C)C
168 | CC(C)(C)OC(=O)Nc1nc2cc(N)ccc2[nH]1
192 to 194 | CC(=O)c1cn(C)cc(-c2cccc(Br)c2)c1=O
122 to 124 | CCCS(=O)(=O)c1ccccc1S(N)(=O)=O
140 to 160 | N#Cc1c(N2CCN(C(=O)c3ccc4c(c3)OCO4)CC2)c2ccccc2n(Cc2ccc(F)cc2)c1=O
150 | COc1ccc2[nH]cc(C(C)N3CCCCC3=O)c2c1 (configuration not stated)
121 to 123 | CC1CCC(C)(C)C2=C1CC(O)C(C)(O)C2 (configuration not stated)
160 to 162 | COc1ccc(-c2cc3nc(N(C)C)c4ccccc4c3nn2)cc1
76 to 77 | COc1cccc(OCC(=O)c2cc(OCc3ccccc3)ccc2OC)c1
187 to 188 | CNC(C)CN1CCc2c(c(=O)oc3cc(C)c(NC(C)=O)cc23)C1 (configuration not stated)
154 to 156 | CCOC(=O)CC12CC1CCCC2=O (configuration not stated)
84 to 86 | Oc1ccccc1N1CCC(CNC[C@H]2COc3ccc(Cl)cc3O2)CC1
169 to 171 | Cc1cc(-c2cc([N+](=O)[O-])ccc2F)cc(C)n1
283 to 285 | CCOc1ccc(-c2nc(-c3ccc(S)cc3C(=O)O)cs2)cc1OCC
59 to 60 | CC(C)(O)C(CS(=O)(=O)c1ccccc1)C(F)(F)F (configuration not stated)
254 to 258 | Cc1nc(N)nc(N)c1C12CC3CC(CC(C3)C1)C2
167 to 168 | O=C(O)CN1CC(=O)N(Cc2ccc(Cl)c([N+](=O)[O-])c2)C1=O
206 to 207 | O=S1(=O)CNc2cccc3cccc1c23

melting point [°C] | SMILES
112 to 115 | CC1Cc2c(c(Cl)cc(Cl)c2-n2nc(C(C)(C)C)oc2=O)O1 (configuration not stated)
157 to 159 | Cn1c(-c2cccs2)nnc1S(C)(=O)=O
232 to 233 | CNC(=O)C(Cc1ccc(OC)cc1)NC(=O)Nc1n[nH]c(=S)s1 (configuration not stated)
119 to 121 | COc1cc(-c2nc3ncccc3o2)cc(C(C)(C)C)c1
53 to 55 | C=CCOC1CC(C)(C)N(c2nc(Cl)nc(Cl)n2)C(C)(C)C1
262 to 264 | O=C(OC(=O)c1cn(-c2ccccc2)nc1-c1ccc([N+](=O)[O-])o1)c1cn(-c2ccccc2)nc1-c1ccc([N+](=O)[O-])o1
163 to 165 | CC1(C)CCC2=C1CCC1C3CC(C#N)C(=O)C=C3CCC21 (configuration not stated)
210 to 215 | N#Cc1cc(C=O)cc(O)c1O
89 to 90 | COC(=O)C(=CNc1ccc(F)c(F)c1OCC(C)OS(=O)(=O)c1ccc(C)cc1)C(=O)OC (configuration not stated)
209 to 211 | COc1cc(C2CCN(C[C@@H](O)CO)CC2)ccc1-c1nc2c(N[C@H]3[C@@H](C(N)=O)[C@@H]4C=C[C@H]3C4)c(Cl)cnc2[nH]1
251 to 252 | CC(C)(C)C(NC(=O)c1cccc(-c2ccco2)c1)Nc1c(Nc2cccnc2)c(=O)c1=O (configuration not stated)
191 to 193 | Cc1nc(N2CCOCC2)ccc1N1CCCn2c1nc1c(Cl)ccc(C(OC(F)F)C(F)(F)F)c12 (configuration not stated)
94 to 95 | CCOC(=O)c1cn(Cc2ccc(OCc3csc(-c4ccccc4)n3)cc2)nc1-c1cccs1
130 | CCCn1c(=O)c2c(nc(C=O)n2C)n(CCC)c1=O
183 to 191 | CCCCCCCCCCCCCCCC(=O)OCC(CO)CCn1cnc2c(=O)[nH]c(N)nc21 (configuration not stated)
243 to 245 | O=c1c2c(Cc3ccc(F)cc3)n[nH]c2c2cccnc2n1-c1cccc(C(F)(F)F)c1
106 to 109 | CCC(=O)NCCC1=CCc2cc(Br)c(OC)cc21
64 to 65 | C=CCOc1cccc2oc(C(=O)OCC)c(C)c12
105 to 108 | CCCCCCC1=CC(O)(C(Br)Br)N(Cc2ccccc2)C1=O (configuration not stated)
144 to 146 | Cn1cc(-c2cc3cccnc3[nH]2)c2cc(OC3(CO)CCC3)ccc21
93 to 99 | CCOC(=O)CC1(O)c2ccccc2C=Cc2ccccc21
194 | CC(C)(C)C(=O)N[C@H]1CC[C@H](CCN2CCN(c3nccc4c3OCC4)CC2)CC1
82 to 84 | CCOC(=O)CCCn1c(NC(=O)c2cccs2)nc2cc(C(=O)N(C)C3CCCCC3)ccc21

SMILES | melting point [°C]
O=c1c2c(F)cccc2nc(C(S)c2ncnc3[nH]cnc23)n1-c1ccccc1Cl (configuration not stated) | 223 to 224
O=C1c2c(O)cccc2C(SCCS)c2cccc(O)c21 | 133 to 134
Cc1ccc(S(=O)(=O)OCCN2CN(C)C(=S)N(c3ccc(C)cc3C)C2)cc1 | 82 to 85
CN1CC=C(c2cccc3[nH]ccc23)CC1 | 164
Cc1[nH]c2ccc(NS(C)(=O)=O)cc2c1C1=CCN(C)CC1 | 176 to 184
CC1CCCN(c2cccc3c2C(=N)NC3N)C1 (configuration not stated) | 104
COc1cccc(C(O)CCN2CC=C(c3ccc(Cl)cc3)CC2)c1 (configuration not stated) | 100 to 102
